According to ChEMBL document CHEMBL3430912, “GSK Tres Cantos Anti-Kinetoplastid Screening (TCAKS) Data”:

Experiments:
[1] = system: NIH3T3; experiment: GSK_TCAKS: pIC50 NIH 3T3 cell line viability assay using luminiscence. Tissue culture surface treated assay plates (1536-well) were used. […] The 100% cells survival control was determined exposing the host-cells to a 0.5% DMSO concentration, whereas the 100% toxicity control was achieved by seeding the cells in presence of Amphotericin B at 50uM. Plates were incubated for four days at 37C, 5% CO2. The assay readout was developed by addition of 5uL of CellTiter-Glo Reagent following the manufacturer's instructions. Luminiscence was measured using a ViewLux.; type: functional, cell-based; settings: Mus musculus, NIH3T3, 96 h
[2] = system: Leishmania donovani; experiment: (§1) GSK_TCAKS: pIC50 Leishmania donovani Imaging: Infected Macrophages. Assay plates (384-well) were prepared by adding 250nL of compound to each well. For single shot assay, the final compound concentration was 5 uM. […] Automated image analysis was performed with a script developed on Acapella High Content Imaging and Analysis Software (PerkinElmer). Output: Percent of infected macrophage cells were reported for each well.; type: functional, organism-based, Homo sapiens; settings: THP-1
[3] = system: Trypanosoma brucei brucei; experiment: GSK_TCAKS: pIC50 Trypanosoma brucei viability assay using fluorescence intensity. Assay plates (1536-well) were prepared by dispensing 25nL of compound solution per well using an Echo acoustic dispenser (Labcyte).; type: functional, organism-based; settings: Lister 427, 2 h
[4] = system: Trypanosoma cruzi; experiment: GSK_TCAKS: pIC50 Trypanosoma cruzi viability assay using beta-GAL activity. This assay was run at single shot at 5uM compound concentration per well. The biological reagents consisted of NIH-3T3 host cells and trypomastigotes parasitic cells; both cell types were set to a 3.3 * 10^5 cells/mL dilution in assay DMEM by means of a CASY cell counter device using a 60um capillary. 6 uL of the mixture were dispensed per well (about 1 * 10^3 host-cells and 1 * 10^3 parasites) with a Multidrop Combi dispenser. […] In all wells, the percentage of DMSO never exceeded 0.5%. Plates incubated for four days at 37C, 5% CO2. The substrate used for the assay fluorescence intensity (FLINT) readout was resorufin-beta-D-galactopiranoside (Sigma-Aldrich) at 5uM per well. It was diluted in PBS supplemented with the soft detergent Igepal (Fluka).; type: functional, organism-based, Mus musculus; settings: Tulahuen, NIH3T3
[5] = GSK_TCAKS: pIC50 HepG2 human cell line viability assay using luminiscence. […] Seeding density was checked to ensure that new mono-layers were not more than 50% confluent at the time of harvesting. Cell suspension was added to 500 mL of the same medium at a final density of 1.2 * 10^5 cells/mL. This cell suspension was dispensed (25 uL, 3000 cells per well) into 384-well clear-bottom plates using a Multidrop Combi dispenser. Prior to addition of the cell suspension, the screening compounds (250 nL) were pre-dispensed into the plates with an Echo liquid handler. Plates were incubated for 48 h at 37C, 5% CO2. After incubation, plates equilibrated at room temperature for 30 min before proceeding to develop the luminescent signal. The signal developer, CellTiter-Glo Reagent, was allowed to equilibrate at room temperature for 30 min and added to the plates (25uL per well) using a Multidrop Combi dispenser. Plates were left for 10 min at room temperature for stabilization and then read using a ViewLux.; type: toxicity, cell-based
[6] = target: Sterol 14-alpha demethylase (Trypanosoma cruzi (strain CL Brener), UniProt Q7Z1V1); experiment: GSK_TCAKS: pIC50 CYP51 from Trypanosoma cruzi.; type: functional
Chain of Sterol 14-alpha demethylase (Q7Z1V1 whole entry): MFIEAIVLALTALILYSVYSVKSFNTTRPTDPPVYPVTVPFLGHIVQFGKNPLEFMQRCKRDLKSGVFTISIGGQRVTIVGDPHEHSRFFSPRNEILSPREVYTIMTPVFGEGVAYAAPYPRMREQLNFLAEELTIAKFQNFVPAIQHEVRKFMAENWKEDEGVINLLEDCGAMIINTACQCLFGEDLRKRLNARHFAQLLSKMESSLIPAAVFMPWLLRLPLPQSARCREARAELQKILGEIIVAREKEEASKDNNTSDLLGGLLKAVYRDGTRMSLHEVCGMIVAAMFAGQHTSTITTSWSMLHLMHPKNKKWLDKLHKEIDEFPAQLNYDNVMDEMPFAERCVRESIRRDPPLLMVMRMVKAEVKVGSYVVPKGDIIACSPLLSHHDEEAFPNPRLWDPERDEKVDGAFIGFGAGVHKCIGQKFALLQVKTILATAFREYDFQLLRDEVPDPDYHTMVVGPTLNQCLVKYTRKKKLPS

[7] = system: Trypanosoma cruzi; experiment: (§2) GSK_TCAKS: pIC50 Trypanosoma cruzi Imaging: Infected Cells. […] Cells were then washed once with PBS before infection. T. cruzi trypomastigotes, collected at days 5 to 8 after infection from LLC-MK2 parasite infected cultures, were allowed to swim out for 4h at 37C from a centrifuged pellet (2,500 rpm/10 min/room temperature). Trypomastigotes were then collected and counted in a CASY Cell Counter. Trypomastigotes, in supplemented DMEM, were added to H9c2 cultures in a multiplicity of infection of 1 and incubated for 18 h. Cells were washed once with PBS before incubation of the infected H9c2 monolayer with trypsin (Life-Technologies) to detach cells from the flask. Cells were counted in a CASY Cell Counter using a 150 um capillary and their density set at 5 * 10^4 cells per mL in supplemented assay DMEM. Infected H9c2 were dispensed into 384-well poly-lysine coated assay plates at 50uL per well using a Multidrop Combi dispenser. After seeding them, the plates were incubated at 37C, 5% CO2 for 72h. Cultures were then fixed and stained by addition of 50 uL of a solution containing 8% formaldehyde and 4 uM DRAQ5 DNA dye (BioStatus, UK) per well. […] Five images were collected per well for reliable statistical analysis. Automated image analysis was performed with a script developed on Acapella High Content Imaging and Analysis Software (PerkinElmer). Output: percentage of infected cells per well as a second infection marker.; type: functional, organism-based, Rattus norvegicus; settings: H9c2, 4 h
[8] = system: Leishmania donovani; experiment: as §1, with “Amastigotes/Macrophages.” for “Infected Macrophages.”, “Average number” for “Percent”, “amastigotes per” for “infected”, “cell” for “cells”; type: functional, organism-based, Homo sapiens; settings: THP-1
[9] = system: Trypanosoma brucei brucei; experiment: GSK_TCAKS: pIC50 Trypanosoma brucei viability assay using luminiscence. Assay plates (1536-well) were prepared. T. brucei cultures were harvested and counted in a CASY cell counter. A parasite suspension was prepared at a final concentration of 5 * 10^4 cells/mL in complete HMI9 medium and 6uL was dispensed to all wells containing compounds using a Multidrop Combi dispenser. 6uL of HMI9 media with 0.4% DMSO were dispensed to control columns. Plates were incubated for 24 h at 37C, 5% CO2 then tempered for 10 min at room temperature. ATP content was quantified by adding 4 uL of CellTiter-Glo Reagent (Promega) according to the manufacturer's instructions. Luminescence was measured using a ViewLux.; type: functional, organism-based; settings: Lister 427, CASY
[10] = system: Leishmania donovani; experiment: as §1, with “THP-1 Host” for “Infected”, “THP-1 cell count” for “Percent of infected macrophage cells”; type: functional, organism-based, Homo sapiens
[11] = system: Leishmania donovani; experiment: GSK_TCAKS: pIC50 Leishmania donovani viability assay using fluorescence intensity. Assay plates (1536-well) were prepared by adding 30nL per well of compound. For single shot assay, the final compound concentration was 5uM. […] Briefly, eGFP LdBOB axenic amastigotes were harvested, fixed and counted in a CASY cell counter (Roche-Applied Science). A final concentration of 1.5 * 10^5 cells per well were prepared in amastigote media containing 500 U/mL penicillin/streptomycin (Invitrogen) and 6uL was dispensed to each experimental well using a Multidrop Combi dispenser (Thermo Scientific). 6uL of assay media was dispensed to control columns used as reference for 100% compound response. Following incubation for 72 h at 37C, 5% CO2, 2 uL of resazurin was added to each well at a final concentration of 0.5 mM in phosphate buffered saline (PBS) with IGEPAL (Sigma-Aldrich), 0.05% (v/v).; type: functional, organism-based
[12] = system: Trypanosoma cruzi; experiment: as §2, with “H2C9” for “Trypanosoma cruzi”, “H9c2 Host Cardiomyocytes.” for “Infected Cells.”, “Number” for “percentage”, “H9c2 Host Cardiomyocytes nuclei to determine drug-related cytotoxicity.” for “infected cells per well as a second infection marker.”; type: functional, organism-based, Rattus norvegicus; settings: H9c2, 4 h
[13] = system: Trypanosoma cruzi; experiment: GSK_TCAKS: pIC50 Trypanosoma cruzi Imaging: Amastigotes/Cell. […] Cells were then washed once with PBS before infection. T. cruzi trypomastigotes, collected at days 5 to 8 after infection from LLC-MK2 parasite infected cultures, were allowed to swim out for 4h at 37C from a centrifuged pellet (2,500 rpm/10 min/room temperature). Trypomastigotes were then collected and counted in a CASY Cell Counter. Trypomastigotes, in supplemented DMEM, were added to H9c2 cultures in a multiplicity of infection of 1 and incubated for 18 h. Cells were washed once with PBS before incubation of the infected H9c2 monolayer with trypsin (Life-Technologies) to detach cells from the flask. Cells were counted in a CASY Cell Counter using a 150 um capillary and their density set at 5 * 10^4 cells per mL in supplemented assay DMEM. Infected H9c2 were dispensed into 384-well poly-lysine coated assay plates at 50uL per well using a Multidrop Combi dispenser. After seeding them, the plates were incubated at 37C, 5% CO2 for 72h. Cultures were then fixed and stained by addition of 50 uL of a solution containing 8% formaldehyde and 4 uM DRAQ5 DNA dye (BioStatus, UK) per well. […] Five images were collected per well for reliable statistical analysis. Automated image analysis was performed with a script developed on Acapella High Content Imaging and Analysis Software (PerkinElmer). Output: number of amastigotes per cell as infection level measurement.; type: functional, organism-based, Rattus norvegicus; settings: H9c2, 4 h

Compound	IC50 [1] [µM]	IC50 [2] [µM]	IC50 [3] [µM]	IC50 [4] [µM]	IC50 at 48 h [5] [µM]	IC50 [6] [µM]	IC50 [7] [µM]	IC50 [8] [µM]	IC50 [9] [µM]	IC50 [10] [µM]	IC50 [11] [µM]	IC50 [12] [µM]	IC50 [13] [µM]
O=C(c1ccc(OCCCc2cnc[nH]2)cc1)C1CC1	12.6	> 50.1	10	0.355	> 100	0.0501	1.58	7.94	> 39.8	> 50.1	> 50.1	> 50.1	1.26
Cc1cc(C)c(C#N)c(SCC(=O)c2ccc3c(c2)OCO3)n1	> 50.1	> 50.1	20	2	> 100	> 100	0.794	> 50.1	15.8	> 50.1	> 50.1	> 50.1	0.398
Cc1cc(N(C)C)nc2ccc(Cc3cnc(N)nc3N)cc12	10	31.6	5.01	1.26	31.6	> 100	6.31	39.8	5.01	39.8	> 50.1	> 50.1	3.16
Cc1cc(Br)cc(C(=O)c2c(C(C)C)c(=O)[nH]c(=O)n2Cc2ccnc(N)c2)c1	15.8	31.6	12.6	0.398	> 100	0.0158	0.316	20	25.1	39.8	> 50.1	> 50.1	0.251
N#Cc1cc(N2CCCC2=O)ccc1Sc1ccccc1CO	> 50.1	> 50.1	39.8	0.251	> 100	20	0.398	> 50.1	31.6	> 50.1	> 50.1	> 50.1	0.251
Clc1ccc(CN2CCN(C3=NCCN3)CC2)cc1Cl	39.8	> 50.1	> 39.8	1.26	63.1	> 100	10	> 50.1	> 39.8	> 50.1	> 50.1	> 50.1	1
CCCc1nc2nc(N)nc(N)c2cc1CC	31.6	39.8	20	0.355	20	> 100	0.316	39.8	25.1	> 50.1	2	12.6	0.0794
N#Cc1c(Oc2cccc(Cl)c2)cccc1[N+](=O)[O-]	20	10	0.00794	0.316	25.1	> 100	0.631	7.94	0.00501	> 50.1	7.94	15.8	0.126
COc1ccccc1-c1c(C)[nH]c2nc(N)nc(C)c12	> 50.1	25.1	25.1	0.178	> 100	> 100	0.251	15.8	> 39.8	> 50.1	12.6	> 50.1	0.126
O=C(NCC1CCCCC1)c1cnns1	> 50.1	> 50.1	1	2.51	39.8	> 100	3.16	10	1.26	> 50.1	12.6	> 50.1	2
O=C1CN(C2CCCc3c(OCc4ccncc4)cccc32)C(=O)N1C1CCCCC1 (stereo not drawn)	> 50.1	> 50.1	15.8	0.251	> 100	0.02	0.0158	> 50.1	> 39.8	> 50.1	> 50.1	> 50.1	0.0126
Cc1cccc(NS(=O)(=O)c2ccc3c(c2)C(=O)c2cc(S(=O)(=O)Nc4cccc(C)c4C)ccc2-3)c1C	> 50.1	> 50.1	7.94	0.398	> 100	> 100	0.398	> 50.1	10	> 50.1	> 50.1	31.6	0.398
O=C(Cn1cnc([N+](=O)[O-])n1)Nc1ccc(Cl)cc1C(=O)c1ccccc1	> 50.1	> 50.1	20	0.251	> 100	10	1.26	> 50.1	31.6	> 50.1	> 50.1	> 50.1	0.316
N#Cc1ccc(S(=O)(=O)N2CCN(Cc3cccc(-c4ccncc4)c3)CC2)cc1	12.6	> 50.1	> 39.8	0.398	> 100	0.0794	0.251	1.26	20	> 50.1	> 50.1	25.1	0.2
CN(C)Cc1ccc(N2CCC(NS(=O)(=O)c3ccc(Cl)cc3)CC2)cc1	15.8	> 50.1	25.1	0.794	50.1	> 100	0.316	25.1	31.6	25.1	39.8	12.6	0.251
Oc1nccc2ccc(-c3ccncc3)cc12	> 50.1	> 50.1	31.6	0.2	> 100	0.0158	0.251	20	> 39.8	39.8	> 50.1	> 50.1	0.251
